Data from patent publication US20260315604A1, “OTUB1 Small-Molecule Binders and OTUB1-recruiting Deubiquitinase-targeting Chimeras (DUBTACs)” (ICAHN SCHOOL OF MEDICINE AT MOUNT SINAI, priority 2023, published 2026).

Each compound was assayed against T1, Human OTUB1 wild-type (Homo sapiens, UniProt Q96FW1) (assay: Covalent modification of OTUB1 (adduct formation), mass spectrometry-based assay (OTUB1 covalent binders; selected CFTR or cGAS based bivalent compounds)). Conditions: covalent adduct formation with OTUB1 protein.
T1 construct: His tag (N); made in house; host or cells: E. coli BL21-CodonPlus (DE3)-RIPIL
Format: binding
Procedure, shortened: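 His-tagged human OTUB1 (10 μM), E. coli-expressed, incubated with compound (2500 μM) in 50 mM Tris-HCl pH 7.5, 150 mM NaCl, 0.5 mM TCEP for 1 h at room temperature. Adduct detected by intact-protein LC/ESI-TOF mass spectrometry after buffer exchange; duplicates.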

T1 sequence (Q96FW1 whole entry): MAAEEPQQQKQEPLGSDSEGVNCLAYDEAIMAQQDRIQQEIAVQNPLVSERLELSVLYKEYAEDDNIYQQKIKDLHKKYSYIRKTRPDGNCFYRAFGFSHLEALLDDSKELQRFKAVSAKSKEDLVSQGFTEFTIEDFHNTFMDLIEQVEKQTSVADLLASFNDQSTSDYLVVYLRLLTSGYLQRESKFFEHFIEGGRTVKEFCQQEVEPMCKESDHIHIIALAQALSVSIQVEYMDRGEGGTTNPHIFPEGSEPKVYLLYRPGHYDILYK

SMILES | % of OTUB1 modified
Cc1cccc(N2CCN(C(=O)C#C[Si](C)(C)C)CC2=O)c1 [XS165-77, 1-(m-tolyl)-4-(3-(trimethylsilyl)propioloyl)piperazin-2-one] | 100%
Cc1ccc(C(=O)N2CC3CCC(C2)N3C(=O)/C=C/CN(C)C)s1 [XS185-70, (E)-4-(dimethylamino)-1-(3-(5-methylthiophene-2-carbonyl)-3,8-diazabicyclo[3.2.1]octan-8-yl)but-2-en-1-one] | 20%
Cc1ccc(NC(=O)C2CC3(C2)CN(C(=O)/C=C/CN(C)C)C3)s1 [XS175-149, (E)-2-(4-(dimethylamino)but-2-enoyl)-N-(5-methylthiophen-2-yl)-2-azaspiro[3.3]heptane-6-carboxamide] | 18%
Cc1ccc(N2CCN(C(=O)/C=C/CN3CCCCC3)CC2=O)s1 [XS165-170, (E)-1-(5-methylthiophen-2-yl)-4-(4-(piperidin-1-yl)but-2-enoyl)piperazin-2-one] | 70%
Cc1ccc(C(=O)N2CCC(NC(=O)/C=C/CN(C)C)CC2)s1 [XS185-65, (E)-4-(dimethylamino)-N-(1-(5-methylthiophene-2-carbonyl)piperidin-4-yl)but-2-enamide] | 1%
CN(C)C/C=C/C(=O)N1C2CC1CN(C(=O)c1cc3c(s1)CCC3)C2 [XS190-50, (E)-1-(3-(5,6-dihydro-4H-cyclopenta[b]thiophene-2-carbonyl)-3,6-diazabicyclo[3.1.1]heptan-6-yl)-4-(dimethylamino)but-2-en-1-one] | 92%
Cc1cc(C)c(N2CCN(C(=O)/C=C/CN(C)C)CC2=O)s1 [XS175-45, (E)-4-(4-(dimethylamino)but-2-enoyl)-1-(3,5-dimethylthiophen-2-yl)piperazin-2-one] | 45%
Cc1ccc(NC(=O)C2CCN(C(=O)CCl)CC2)s1 [XS185-4, 1-(2-chloroacetyl)-N-(5-methylthiophen-2-yl)piperidine-4-carboxamide] | 100%
CN(C)C/C=C/C(=O)N1CC2(C1)CN(c1cc3ccccc3s1)C2 [XS185-46, (E)-1-(6-(benzo[b]thiophen-2-yl)-2,6-diazaspiro[3.3]heptan-2-yl)-4-(dimethylamino)but-2-en-1-one] | 1%
CN(C)C/C=C/C(=O)N1CCN(c2cc3ccccc3o2)C(=O)C1 [XS185-78, (E)-1-(benzofuran-2-yl)-4-(4-(dimethylamino)but-2-enoyl)piperazin-2-one] | 40%
Cc1ccc(N2CCN(C(=O)/C=C/CN(C)C)CC2=O)o1 [XS165-100, (E)-4-(4-(dimethylamino)but-2-enoyl)-1-(5-methylfuran-2-yl)piperazin-2-one] | 25%
Cc1ccc(C(=O)N2C3CC2CN(C(=O)/C=C/CN(C)C)C3)s1 [XS185-67, (E)-4-(dimethylamino)-1-(6-(5-methylthiophene-2-carbonyl)-3,6-diazabicyclo[3.1.1]heptan-3-yl)but-2-en-1-one] | 15%
Cc1ccsc1N1CCN(C(=O)/C=C/CN(C)C)CC1=O [XS175-68, (E)-4-(4-(dimethylamino)but-2-enoyl)-1-(3-methylthiophen-2-yl)piperazin-2-one] | 70%
Cc1ccc(C(=O)N2CC3CC(C2)N3C(=O)/C=C/CN(C)C)s1 [XS185-72, (E)-4-(dimethylamino)-1-(3-(5-methylthiophene-2-carbonyl)-3,6-diazabicyclo[3.1.1]heptan-6-yl)but-2-en-1-one] | 90%
Cc1cccc(N2CC3CCC(C2)N3C(=O)CCl)n1 [XS165-121, 2-chloro-1-(3-(6-methylpyridin-2-yl)-3,8-diazabicyclo[3.2.1]octan-8-yl)ethan-1-one] | 100%
C=C(C#N)CN1CCN(c2ccc(C)s2)C(=O)C1 [XS185-87, 2-((4-(5-methylthiophen-2-yl)-3-oxopiperazin-1-yl)methyl)acrylonitrile] | 1%
Cc1ccc(NC(=O)C2CN(C(=O)/C=C/CN(C)C)C2)s1 [XS175-71, (E)-1-(4-(dimethylamino)but-2-enoyl)-N-(5-methylthiophen-2-yl)azetidine-3-carboxamide] | 40%
Cc1cccc(N2CCN(C(=O)CCl)CC2=O)n1 [XS165-120, 4-(2-chloroacetyl)-1-(6-methylpyridin-2-yl)piperazin-2-one] | 100%

Now from value to compound:

% of OTUB1 modified | SMILES
8% | CC(C)C(=O)N1CC2CC(C1)N2C(=O)/C=C/CN(C)C [XS197-50, (E)-4-(dimethylamino)-1-(3-isobutyryl-3,6-diazabicyclo[3.1.1]heptan-6-yl)but-2-en-1-one]
90% | CC(=O)N1CCC(c2ccc(N3CC4CCC(C3=O)N4C(=O)/C=C/CN(C)C)s2)CC1 (stereo not drawn) [XS197-145, (E)-3-(5-(1-acetylpiperidin-4-yl)thiophen-2-yl)-8-(4-(dimethylamino)but-2-enoyl)-3,8-diazabicyclo[3.2.1]octan-2-one]
30% | Cc1cccc(N2CC3CCC(C2=O)N3C(=O)/C=C/CN(C)C)n1 (stereo not drawn) [XS190-181, (E)-8-(4-(dimethylamino)but-2-enoyl)-3-(6-methylpyridin-2-yl)-3,8-diazabicyclo[3.2.1]octan-2-one]
48% | CN(C)C/C=C/C(=O)N1C2CC1CN(C(=O)C1CCCCC1)C2 [XS190-129, (E)-1-(3-(cyclohexanecarbonyl)-3,6-diazabicyclo[3.1.1]heptan-6-yl)-4-(dimethylamino)but-2-en-1-one]
90% | Cc1ccc(C(=O)N2CC(NC(=O)C#CCN(C)C)C2)s1 [XS224-144, 4-(dimethylamino)-N-(1-(5-methylthiophene-2-carbonyl)azetidin-3-yl)but-2-ynamide]
80% | CN(C)C/C=C/C(=O)N1C2CC1CN(C(=O)c1ccc(C#CCO)s1)C2 [XS197-94, (E)-4-(dimethylamino)-1-(3-(5-(3-hydroxyprop-1-yn-1-yl)thiophene-2-carbonyl)-3,6-diazabicyclo[3.1.1]heptan-6-yl)but-2-en-1-one]
22% | CC(=O)N1CCC(C(=O)N2CC3CC(C2)N3C(=O)/C=C/CN(C)C)CC1 [XS197-6, (E)-1-(3-(1-acetylpiperidine-4-carbonyl)-3,6-diazabicyclo[3.1.1]heptan-6-yl)-4-(dimethylamino)but-2-en-1-one]
15% | Cc1ccc(C(=O)NC2CC(NC(=O)C#CC(C)(C)N(C)C)C2)s1 (stereo not drawn) [XS224-149, N-(3-(4-(dimethylamino)-4-methylpent-2-ynamido)cyclobutyl)-5-methylthiophene-2-carboxamide]
15% | CN(C)C/C=C/C(=O)N1Cc2ccccc2C1 [XS197-186, (E)-4-(dimethylamino)-1-(isoindolin-2-yl)but-2-en-1-one]
88% | CC(=O)N1CCc2sc(C(=O)N3CC4CC(C3)N4C(=O)/C=C/CN(C)C)cc2C1 [XS190-69, (E)-1-(3-(5-acetyl-4,5,6,7-tetrahydrothieno[3,2-c]pyridine-2-carbonyl)-3,6-diazabicyclo[3.1.1]heptan-6-yl)-4-(dimethylamino)but-2-en-1-one]
35% | CC(=O)N1CC2(CCC(C(=O)N3CC4CC(C3)N4C(=O)/C=C/CN(C)C)CC2)C1 [XS209-54, (E)-1-(3-(2-acetyl-2-azaspiro[3.5]nonane-7-carbonyl)-3,6-diazabicyclo[3.1.1]heptan-6-yl)-4-(dimethylamino)but-2-en-1-one]
55% | CC1CCC(C(=O)N2CC3CC(C2)N3C(=O)/C=C/CN(C)C)C1 (stereo not drawn) [XS190-170, (E)-4-(dimethylamino)-1-(3-(3-methylcyclopentane-1-carbonyl)-3,6-diazabicyclo[3.1.1]heptan-6-yl)but-2-en-1-one]
100% | CC(C)c1ccc(NC(=O)C2CN(C(=O)C#CCN(C)C)C2)s1 [XS224-116, 1-(4-(dimethylamino)but-2-ynoyl)-N-(5-isopropylthiophen-2-yl)azetidine-3-carboxamide]
75% | CN(C)C/C=C/C(=O)N1C2CCC1C(=O)N(C1=CCCCC1)C2 (stereo not drawn) [XS209-30, (E)-3-(cyclohex-1-en-1-yl)-8-(4-(dimethylamino)but-2-enoyl)-3,8-diazabicyclo[3.2.1]octan-2-one]
80% | Cc1ccc(C(=O)N2CC3CC(C2)N3C(=O)/C=C/CN(C)C)o1 [XS190-157, (E)-4-(dimethylamino)-1-(3-(5-methylfuran-2-carbonyl)-3,6-diazabicyclo[3.1.1]heptan-6-yl)but-2-en-1-one]
100% | Cc1ccc(NC(=O)C2CN(C(=O)C#CCN(C)C)C2)s1 [XS224-110, 1-(4-(dimethylamino)but-2-ynoyl)-N-(5-methylthiophen-2-yl)azetidine-3-carboxamide]
40% | Cc1cnc(NC(=O)C2(O)CN(C(=O)/C=C/CN(C)C)C2)s1 [XS209-39, (E)-1-(4-(dimethylamino)but-2-enoyl)-3-hydroxy-N-(5-methylthiazol-2-yl)azetidine-3-carboxamide]
75% | CN1CC2CCC(C1=O)N2C(=O)CCl (stereo not drawn) [XS197-29, 8-(2-chloroacetyl)-3-methyl-3,8-diazabicyclo[3.2.1]octan-2-one]
75% | CN(C)C(C)(C)C#CC(=O)N1CC(C(=O)Nc2cc3c(s2)CCCC3)C1 [XS224-109, 1-(4-(dimethylamino)-4-methylpent-2-ynoyl)-N-(4,5,6,7-tetrahydrobenzo[b]thiophen-2-yl)azetidine-3-carboxamide]
49% | CN(C)C/C=C/C(=O)N1CC(NC(=O)c2cc3c(s2)CCCC3)C1 [XS224-157, (E)-N-(1-(4-(dimethylamino)but-2-enoyl)azetidin-3-yl)-4,5,6,7-tetrahydrobenzo[b]thiophene-2-carboxamide]
100% | CC(=O)N1CC2CC(C1)N2C(=O)C#CCN(C)C [XS209-101, 1-(3-acetyl-3,6-diazabicyclo[3.1.1]heptan-6-yl)-4-(dimethylamino)but-2-yn-1-one]
